These results are taken from US20160369115A1, “POLARIZING PLATE COMPOSITION, POLARIZING PLATE PROTECTIVE FILM, POLARIZER, POLARIZING PLATE, LIQUID CRYSTAL DISPLAY DEVICE, AND COMPOUND USED IN THE LIQUID CRYSTAL DISPLAY DEVICE” (FUJIFILM Corporation, priority 2014, published 2016).

The nature of this data set: Solubility of additive in water. In kind it is physicochemical. Particulars: amount of the additive dissolving in 100 ml of pure water at 25° C. As for the experimental part: The amount of the additive dissolving in 100 ml of pure water at 25° C. was measured and evaluated according to the following criteria.

As to `COC(=O)Oc1[nH]c(=O)n(CCCS(=O)(=O)[O-])c(=O)c1Cc1ccc(C=O)cc1.[Na+]` [Example compound AAC], the Solubility in water result is reported as “A (Equal to or greater than 5 g)”.

For `COC(=O)Oc1[nH]c(=O)n(Cc2ccc(B(O)O)cc2)c(=O)c1Cc1ccc(S(=O)(=O)[O-])cc1S(=O)(=O)[O-].[Na+].[Na+]` [Example compound AAL], the Solubility in water result is listed as “A (Equal to or greater than 5 g)”.

Consider `CCO[Si](CCCNC(=O)OCCn1c(=O)[nH]c(OC(=O)OC)c(Cc2ccc(S(=O)(=O)[O-])cc2S(=O)(=O)[O-])c1=O)(OCC)OCC.[Na+].[Na+]` [Example compound AAP], for which the Solubility in water entry is given as “A (Equal to or greater than 5 g)”. In the case of `COC(=O)Oc1[nH]c(=O)n(Cc2ccc(F)c(F)c2)c(=O)c1Cc1ccc(S(=O)(=O)[O-])cc1S(=O)(=O)[O-].[Na+].[Na+]` [Example compound AAS] it was “A (Equal to or greater than 5 g)”. The entry for `COC(=O)Oc1[nH]c(=O)n(Cc2ccc(S(=O)(=O)[O-])cc2)c(=O)c1C=O.[Na+]` [Example compound AAV] is “A (Equal to or greater than 5 g)”; for `COC(=O)Oc1c(Cc2ccccc2)c(=O)n(CS(=O)(=O)[O-])n1C.[Na+]` [Example compound AH] it is “A (Equal to or greater than 5 g)”; for `COC(=O)Cc1c(Cc2ccc(S(=O)(=O)[O-])cc2S(=O)(=O)[O-])c(=O)[nH]c2ccccc12.[Na+].[Na+]` [Example compound AJ] it is “A (Equal to or greater than 5 g)”. The entry for `COC(=O)Oc1c(Cc2ccc(S(=O)(=O)[O-])cc2S(=O)(=O)[O-])c(=O)n(-c2ccccc2)c(=O)n1Cc1ccccc1.[Na+].[Na+]` [Example compound B] is “A (Equal to or greater than 5 g)”; for `CCOC(=O)Oc1c(Cc2ccccc2S(=O)(=O)[O-])c(=O)n(-c2ccccc2)c(=O)n1-c1ccccc1.[Na+]` [Example compound D] it is “A (Equal to or greater than 5 g)”; for `O=C(Oc1c(Cc2ccccc2S(=O)(=O)[O-])c(=O)n(-c2ccccc2)c(=O)n1-c1ccccc1)OC1c2ccccc2-c2ccccc21.[Na+]` [Example compound H] it is “B (Equal to or greater than 1 g and less than 5 g)”. On to `CC(C)[Si](Oc1c(Cc2ccccc2)c(=O)n(CS(=O)(=O)[O-])c(=O)n1C)(C(C)C)C(C)C.[Na+]` [Example compound L], for which the Solubility in water result was “A (Equal to or greater than 5 g)”.

With `O=C([O-])c1ccc(Cc2c(OCOCc3ccccc3)n(-c3ccccc3)c(=O)n(-c3ccccc3)c2=O)cc1.[Na+]` [Example compound O], the Solubility in water result was “B (Equal to or greater than 1 g and less than 5 g)”. The entry for `O=C1NC(=O)N(Cc2ccccc2)C(=O)C1c1ccccc1` (stereo not drawn) [Organic acid 1, reference compound] is “C (Less than 1 g.)”. On to `Nc1c(F)c(F)c(C(=O)O)c(F)c1F` [Organic acid 2, reference compound], for which the Solubility in water entry is “B (Equal to or greater than 1 g and less than 5 g)”. Take `[Cl-].[Cl-].[Zn+2]` [ZnCl2, reference compound]: the Solubility in water result was “A (Equal to or greater than 5 g)”.
